Assay results: US20250324971A1, “HERBICIDAL DERIVATIVES” (SYNGENTA CROP PROTECTION AG, priority 2022, published 2025)

Legend:
Type in all cases: in vivo
Setaria faberi (SETFA) [1] = experiment: Pre-Emergence Test (herbicidal, glasshouse pots); details: evaluated after 13 days, five-point scale
[2] = system: Ipomoea hederacea (IPOHE); experiment: Pre-Emergence Test (herbicidal, glasshouse pots); details: evaluated after 13 days, five-point scale
[3] = system: Echinochloa crus-galli (ECHCG); experiment: Pre-Emergence Test (herbicidal, glasshouse pots); details: evaluated after 13 days, five-point scale
[4] = system: Amaranthus retoflexus (AMARE); experiment: Pre-Emergence Test (herbicidal, glasshouse pots); details: evaluated after 13 days, five-point scale
Zea mays (ZEAMX) [5] = experiment: Pre-Emergence Test (herbicidal, glasshouse pots); details: evaluated after 13 days, five-point scale
[6] = system: Amaranthus palmeri (AMAPA); experiment: Pre-Emergence Test (herbicidal, glasshouse pots); details: evaluated after 13 days, five-point scale
[7] = system: Amaranthus palmeri (AMAPA); experiment: Post-Emergence Test (herbicidal, glasshouse pots); details: evaluated after 13 days
Summary of the method: (§1)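 Damage after 13 days is given as a five-point score, where 5 means 81-100% and 1 means 0-20% injury. Seed-sown pots were treated by spray with the technical ingredient in aqueous acetone (50:50) with 0.5% Tween 20, dose expressed in g/ha.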

[8] = system: Amaranthus retoflexus (AMARE); experiment: Post-Emergence Test (herbicidal, glasshouse pots); details: evaluated after 13 days
Summary of the method: as §1

[9] = system: Echinochloa crus-galli (ECHCG); experiment: Post-Emergence Test (herbicidal, glasshouse pots); details: evaluated after 13 days
Summary of the method: as §1

[10] = system: Ipomoea hederacea (IPOHE); experiment: Post-Emergence Test (herbicidal, glasshouse pots); details: evaluated after 13 days
Summary of the method: as §1

Setaria faberi (SETFA) [11] = experiment: Post-Emergence Test (herbicidal, glasshouse pots); details: evaluated after 13 days
Summary of the method: as §1

Zea mays (ZEAMX) [12] = experiment: Post-Emergence Test (herbicidal, glasshouse pots); details: evaluated after 13 days
Summary of the method: as §1

Row | SMILES | percentage damage caused to the plant, SETFA (Setaria faberi (SETFA) [1]; rate 250 g/ha) | percentage damage caused to the plant, IPHOE ([2]; rate 250 g/ha) | percentage damage caused to the plant, ECHCG ([3]; rate 250 g/ha) | percentage damage caused to the plant, AMARE ([4]; rate 250 g/ha) | percentage damage caused to the plant, ZEAMX (Zea mays (ZEAMX) [5]; rate 250 g/ha) | percentage damage caused to the plant, AMAPA ([6]; rate 250 g/ha) | Post-Emergence Test AMAPA percentage damage (five-point scale) ([7]; rate 250 g/ha) | Post-Emergence Test AMARE percentage damage (five-point scale) ([8]; rate 250 g/ha) | Post-Emergence Test ECHCG percentage damage (five-point scale) ([9]; rate 250 g/ha) | Post-Emergence Test IPHOE percentage damage (five-point scale) ([10]; rate 250 g/ha) | Post-Emergence Test SETFA percentage damage (five-point scale) (Setaria faberi (SETFA) [11]; rate 250 g/ha) | Post-Emergence Test ZEAMX percentage damage (five-point scale) (Zea mays (ZEAMX) [12]; rate 250 g/ha) | further results
1 | CCn1c(Oc2cc(F)ccc2Cl)cc(=O)c(C(=O)O)c1-c1ccc(Cl)c(Cl)c1 [Compound 35, 6-(2-chloro-5-fluoro-phenoxy)-2-(3,4-dichlorophenyl)-1-ethyl-4-oxo-pyridine-3-carboxylic acid] |  |  |  |  |  |  |  |  |  |  |  |  | percentage damage caused to the plant, SETFA (Setaria faberi (SETFA) [1]; rate 1000 g/ha): 5 (5=81-100%); percentage damage caused to the plant, IPHOE ([2]; rate 1000 g/ha): 0; percentage damage caused to the plant, ECHCG ([3]; rate 1000 g/ha): 5 (5=81-100%); percentage damage caused to the plant, AMARE ([4]; rate 1000 g/ha): 1 (1=0-20%); percentage damage caused to the plant, ZEAMX (Zea mays (ZEAMX) [5]; rate 1000 g/ha): 1 (1=0-20%); percentage damage caused to the plant, AMAPA ([6]; rate 1000 g/ha): 0; Post-Emergence Test AMAPA percentage damage (five-point scale) ([7]; rate 1000 g/ha): 3 (3=41-60%); Post-Emergence Test AMARE percentage damage (five-point scale) ([8]; rate 1000 g/ha): 3 (3=41-60%); Post-Emergence Test ECHCG percentage damage (five-point scale) ([9]; rate 1000 g/ha): 4 (4=61-80%); Post-Emergence Test IPHOE percentage damage (five-point scale) ([10]; rate 1000 g/ha): 2 (2=21-40%); Post-Emergence Test SETFA percentage damage (five-point scale) (Setaria faberi (SETFA) [11]; rate 1000 g/ha): 4 (4=61-80%); Post-Emergence Test ZEAMX percentage damage (five-point scale) (Zea mays (ZEAMX) [12]; rate 1000 g/ha): 2 (2=21-40%)
2 | CCn1cc(Oc2cc(=O)c(C(=O)O)c(-c3ccc(Cl)c(Cl)c3)n2CC)cn1 [Compound 59, 2-(3,4-dichlorophenyl)-1-ethyl-6-(1-ethylpyrazol-4-yl)oxy-4-oxo-pyridine-3-carboxylic acid] | 5 (5=81-100%) | 4 (4=61-80%) | 4 (4=61-80%) | 2 (2=21-40%) | 3 (3=41-60%) | 1 (1=0-20%) | 3 (3=41-60%) | 4 (4=61-80%) | 3 (3=41-60%) | 4 (4=61-80%) | 3 (3=41-60%) | 4 (4=61-80%) | 
3 | CCn1c(Oc2ccc(Cl)cn2)cc(=O)c(C(=O)O)c1-c1ccc(Cl)c(Cl)c1 [Compound 38, 6-[(5-chloro-2-pyridyl)oxy]-2-(3,4-dichlorophenyl)-1-ethyl-4-oxo-pyridine-3-carboxylic acid] | 5 (5=81-100%) | 4 (4=61-80%) | 5 (5=81-100%) | 3 (3=41-60%) | 4 (4=61-80%) | 2 (2=21-40%) | 4 (4=61-80%) | 4 (4=61-80%) | 3 (3=41-60%) | 4 (4=61-80%) | 4 (4=61-80%) | 4 (4=61-80%) | 
4 | CCn1c(Oc2ccc(S(C)(=O)=O)cc2)cc(=O)c(C(=O)O)c1-c1ccc(Cl)c(Cl)c1 [Compound 40, 2-(3,4-dichlorophenyl)-1-ethyl-6-(4-methylsulfonyl-phenoxy)-4-oxo-pyridine-3-carboxylic acid] | 2 (2=21-40%) | 3 (3=41-60%) | 0 | 1 (1=0-20%) | 0 | 1 (1=0-20%) | 2 (2=21-40%) | 2 (2=21-40%) | 1 (1=0-20%) | 4 (4=61-80%) | 2 (2=21-40%) | 1 (1=0-20%) | 
5 | CCc1cc(Oc2cc(=O)c(C(=O)O)c(-c3ccc(Cl)c(Cl)c3)n2CC)no1 [Compound 39, 2-(3,4-dichlorophenyl)-1-ethyl-6-(5-ethylisoxazol-3-yl)oxy-4-oxo-pyridine-3-carboxylic acid] | 1 (1=0-20%) | 1 (1=0-20%) | 1 (1=0-20%) | 1 (1=0-20%) | 0 | 1 (1=0-20%) | 1 (1=0-20%) | 1 (1=0-20%) | 1 (1=0-20%) | 2 (2=21-40%) | 1 (1=0-20%) | 0 | 
6 | C#CC(C)Oc1cc(=O)c(C(=O)O)c(-c2ccc(Cl)c(Cl)c2)n1CC (stereo not drawn) [Compound 49, 2-(3,4-dichlorophenyl)-1-ethyl-6-(1-methylprop-2-ynoxy)-4-oxo-pyridine-3-carboxylic acid] | 1 (1=0-20%) | 1 (1=0-20%) | 1 (1=0-20%) | 1 (1=0-20%) | 0 | 0 | 4 (4=61-80%) | 1 (1=0-20%) | 0 | 1 (1=0-20%) | 0 | 1 (1=0-20%) | 
7 | CCn1c(Oc2cc(C(F)F)n(C)n2)cc(=O)c(C(=O)O)c1-c1ccc(Cl)c(Cl)c1 [Compound 56, 2-(3,4-dichlorophenyl)-6-[5-(difluoromethyl)-1-methyl-pyrazol-3-yl]oxy-1-ethyl-4-oxo-pyridine-3-carboxylic acid] |  |  |  |  |  |  |  |  |  |  |  |  | percentage damage caused to the plant, SETFA (Setaria faberi (SETFA) [1]; rate 62.5 g/ha): 1 (1=0-20%); percentage damage caused to the plant, IPHOE ([2]; rate 62.5 g/ha): 0; percentage damage caused to the plant, ECHCG ([3]; rate 62.5 g/ha): 0; percentage damage caused to the plant, AMARE ([4]; rate 62.5 g/ha): 0; percentage damage caused to the plant, ZEAMX (Zea mays (ZEAMX) [5]; rate 62.5 g/ha): 0; percentage damage caused to the plant, AMAPA ([6]; rate 62.5 g/ha): 0; Post-Emergence Test AMAPA percentage damage (five-point scale) ([7]; rate 62.5 g/ha): 3 (3=41-60%); Post-Emergence Test AMARE percentage damage (five-point scale) ([8]; rate 62.5 g/ha): 2 (2=21-40%); Post-Emergence Test ECHCG percentage damage (five-point scale) ([9]; rate 62.5 g/ha): 2 (2=21-40%); Post-Emergence Test IPHOE percentage damage (five-point scale) ([10]; rate 62.5 g/ha): 3 (3=41-60%); Post-Emergence Test SETFA percentage damage (five-point scale) (Setaria faberi (SETFA) [11]; rate 62.5 g/ha): 3 (3=41-60%); Post-Emergence Test ZEAMX percentage damage (five-point scale) (Zea mays (ZEAMX) [12]; rate 62.5 g/ha): 0
